biological target: E. coli β-glucuronidase (Escherichia coli (strain K12), UniProt P05804); assay: β-Glucuronidase assay (4MUG hydrolysis, fluorescence); format: biochemical; conditions: Table 1; compounds from 35,000 compound diversity set library; 50 pM enzyme, 125 uM 4MUG; read-out: IC50, β-Glucuronidase Inhibitory activity of phenoxythiophene sulfonamides

Row | Compound | IC50 [µM]
1 | COc1ccc2ccc(Oc3ccc([S+](=O)([O-])NCc4cccc5ccccc45)s3)cc2c1 [BRITE-354458] | 175
2 | O=[S+]([O-])(NCc1cccc2ccccc12)c1ccc(Oc2ccc3c(c2)CCCC3)s1 [BRITE-355030] | 149
3 | O=[S+]([O-])(NCc1cccc2ccccc12)c1ccc(Oc2ccc(OCc3ccccc3)cc2)s1 [BRITE-355169] | 153
4 | O=[S+]([O-])(NCc1cccc2ccccc12)c1cc(Cl)c(Oc2cccc(-c3ccccc3)c2)s1 [BRITE-355180] | 102
5 | COc1cccc(OC)c1Oc1sc([S+](=O)([O-])NCc2cccc3ccccc23)cc1Cl [BRITE-355201] | 202
6 | O=[S+]([O-])(NCc1cccc2ccccc12)c1cc(Cl)c(Oc2cccnc2)s1 [BRITE-355211] | 192
7 | Cc1cc(Oc2sc([S+](=O)([O-])NCc3cccc4ccccc34)cc2Cl)cc(C(C)C)c1 [BRITE-355214] | 135
8 | CCCOc1ccc(Oc2sc([S+](=O)([O-])NCc3cccc4ccccc34)cc2Cl)cc1 [BRITE-355221] | 402
9 | O=[S+]([O-])(NCc1cccc2ccccc12)c1cc(Cl)c(Oc2ccc3c(c2)OCO3)s1 [BRITE-355233] | 376
10 | Cc1cc(C)cc(Oc2sc([S+](=O)([O-])NCc3cccc4ccccc34)cc2Cl)c1 [BRITE-355234] | 152
11 | O=[S+]([O-])(NCc1cccc2ccccc12)c1cc(Cl)c(Oc2ccc3c(c2)CCCC3)s1 [BRITE-355244] | 123
12 | O=[S+]([O-])(NCc1cccc2ccccc12)c1cc(Cl)c(Oc2ccccc2)s1 [BRITE-355253] | 444

tested on: rats; assay: not given; conditions: background, reference 14; cited from earlier work

Row | Compound | reversal of SN-38-related epithelial cell death and severe diarrhea from CPT-11
13 | O=C1OC(C(O)C(=O)O)C(O)C1O (stereo not shown) [saccharic acid 1,4-lactone] | partially reversed

From US9617239B2, “Phenoxy thiophene sulfonamides and their use as inhibitors of glucuronidase” (North Carolina Central University, priority 2010, dated 2017)
